Positions count from the first letter of the chain named. Active and inactive are the calls of the source. No cut-off for these calls is given here.
How the values were obtained:
[1] = target: T1, 4,4'-diapophytoene desaturase (4,4'-diaponeurosporene-forming) (Staphylococcus aureus (strain Newman), UniProt O07855); test: Inhibition of CrtN in linezolid-resistant Staphylococcus aureus NRS271 assessed as reduction in staphyloxanthin levels after 48 hrs by spectrophotometric method-based pigment inhibition assay
T1 sequence (O07855 whole entry): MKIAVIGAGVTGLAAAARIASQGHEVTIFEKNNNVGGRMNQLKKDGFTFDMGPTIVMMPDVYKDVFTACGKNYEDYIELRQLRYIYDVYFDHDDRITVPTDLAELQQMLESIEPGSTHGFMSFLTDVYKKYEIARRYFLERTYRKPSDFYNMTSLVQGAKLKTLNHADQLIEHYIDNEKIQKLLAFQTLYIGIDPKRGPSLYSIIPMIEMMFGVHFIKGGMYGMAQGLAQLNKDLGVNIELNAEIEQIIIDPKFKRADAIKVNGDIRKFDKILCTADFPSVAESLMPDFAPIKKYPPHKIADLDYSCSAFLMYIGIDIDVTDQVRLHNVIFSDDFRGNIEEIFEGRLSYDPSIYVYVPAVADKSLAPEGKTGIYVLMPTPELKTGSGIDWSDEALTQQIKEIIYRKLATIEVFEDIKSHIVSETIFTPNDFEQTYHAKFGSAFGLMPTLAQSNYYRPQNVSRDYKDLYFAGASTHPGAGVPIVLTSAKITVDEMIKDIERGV

[2] = target: T2, 4,4'-diapophytoene desaturase (4,4'-diaponeurosporene-forming) (Staphylococcus aureus (strain MW2), UniProt Q8NUQ6); test: Inhibition of CrtN in methicillin-resistant Staphylococcus aureus USA400 MW2 assessed as reduction in staphyloxanthin levels after 48 hrs by spectrophotometric method-based pigment inhibition assay; design: species or system Staphylococcus aureus subsp. aureus MW2
T2 sequence (Q8NUQ6 whole entry): T1 sequence (O07855 whole entry) with R500Q

[3] = system: Staphylococcus aureus; test: Growth inhibition of vancomycin-intermediate Staphylococcus aureus Mu50 at 0.2 mM incubated overnight measured at 30 mins interval; type: organism-based; details: 0.5 h, 200 µM
[4] = system: Staphylococcus aureus; test: Growth inhibition of methicillin-resistant Staphylococcus aureus USA400 MW2 at 0.2 mM incubated overnight measured at 30 mins interval; type: organism-based; details: 0.5 h, 200 µM
[5] = system: Nannizzia gypsea; test: Antifungal activity against Microsporum gypseum after 7 days by broth microdilution method; type: functional, organism-based
[6] = target: T3, 4,4'-diapophytoene desaturase (4,4'-diaponeurosporene-forming) (Staphylococcus aureus (strain MW2)) (UniProt Q8NUQ6); test: Inhibition of CrtN in Staphylococcus aureus USA300 LAC assessed as H2O2-induced bacterial death by measuring reduction in bacterial survival at 1 uM preincubated for 24 hrs followed by H2O2 addition measured after 30 mins by serial dilution method; details: Staphylococcus aureus subsp. aureus USA300
T3 sequence (whole entry): T1 sequence (O07855 whole entry) with R500Q

[7] = system: Staphylococcus aureus; test: Induction of sensitization to immune clearance towards Staphylococcus aureus Newman infected in human whole blood assessed as bacterial killing by measuring bacterial survival after 6 hrs by serial dilution method relative to control; type: functional
[8] = system: Staphylococcus aureus; test: Induction of sensitization to immune clearance towards Staphylococcus aureus Mu50 infected in human whole blood assessed as bacterial killing by measuring bacterial survival after 6 hrs by serial dilution method relative to control; type: functional
[9] = system: Staphylococcus aureus; test: Antibacterial activity against Staphylococcus aureus Newman infected in BALB/c mouse assessed as reduction of bacterial burden in heart at 0.4 mg, ip bid administered at 12 hrs prior to bacterial infection dosed at 12 intervals for 4.5 days relative to control; type: functional; design: scale not given: the % may be the effect or the level left
[10] = system: Staphylococcus aureus; test: Antibacterial activity against vancomycin-intermediate Staphylococcus aureus Mu50 infected in BALB/c mouse assessed as reduction of bacterial burden in heart at 0.1 mg, ip bid for 3.5 days administered 6 hrs post bacterial infection measured 84 hrs post infection relative to control; type: functional; design: scale not given: the % may be the effect or the level left
[11] = system: Staphylococcus aureus; test: Antibacterial activity against vancomycin-intermediate Staphylococcus aureus Mu50 infected in BALB/c mouse assessed as reduction of bacterial burden in heart at 0.4 mg, ip bid for 3.5 days administered 6 hrs post bacterial infection measured 84 hrs post infection relative to control; type: functional; design: scale not given: the % may be the effect or the level left
[12] = system: Staphylococcus aureus; test: Antibacterial activity against vancomycin-intermediate Staphylococcus aureus Mu50 infected in BALB/c mouse assessed as reduction of bacterial burden in liver at 0.4 mg, ip bid administered at 12 hrs prior to bacterial infection dosed at 12 intervals for 4.5 days; type: functional, organism-based
[13] = system: Staphylococcus aureus; test: Antibacterial activity against linezolid-resistant Staphylococcus aureus NRS271 infected in BALB/c mouse assessed as reduction of bacterial burden in heart at 0.1 mg, ip bid for 3.5 days administered 6 hrs post bacterial infection measured 84 hrs post infection; type: functional; design: scale not given: the % may be the effect or the level left
[14] = system: Staphylococcus aureus; test: Antibacterial activity against linezolid-resistant Staphylococcus aureus NRS271 infected in BALB/c mouse assessed as log reduction of colony forming units in liver at 0.1 mg, ip bid for 3.5 days administered 6 hrs post bacterial infection measured 84 hrs post infection; type: functional
[15] = system: Staphylococcus aureus; test: Antibacterial activity against linezolid-resistant Staphylococcus aureus NRS271 infected in BALB/c mouse assessed as log reduction of colony forming units in liver at 0.4 mg, ip bid for 3.5 days administered 6 hrs post bacterial infection measured 84 hrs post infection; type: functional
[16] = Half life in human liver microsomes at 2 uM by LC-MS/MS analysis; type: ADME, microsome
[17] = Cytotoxicity against HEK293T cells after 72 hrs by CCK8 assay; type: cell-based, HEK-293T; details: human
[18] = Cytotoxicity against human HepG2 cells after 72 hrs by CCK8 assay; type: cell-based
[19] = system: Staphylococcus aureus; test: Antibacterial activity against linezolid-resistant Staphylococcus aureus NRS271 infected in BALB/c mouse assessed as reduction of bacterial burden in heart at 0.1 mg, ip bid administered at 24 hrs prior to bacterial infection dosed at 12 intervals for 4.5 days
[20] = system: Staphylococcus aureus; test: Antibacterial activity against linezolid-resistant Staphylococcus aureus NRS271 infected in BALB/c mouse assessed as reduction of bacterial burden in heart at 0.4 mg, ip bid administered at 24 hrs prior to bacterial infection dosed at 12 intervals for 4.5 days
[21] = system: Staphylococcus aureus; test: Antibacterial activity against Staphylococcus aureus Newman infected in BALB/c mouse assessed as reduction of bacterial burden in liver at 0.1 mg, ip bid for 3.5 days administered 6 hrs post bacterial infection measured 84 hrs post infection relative to control; design: scale not given: the % may be the effect or the level left

In the case of `CN(C/C=C/C=C/c1ccc(C(F)(F)F)cc1)Cc1ccc2c(c1)OCCO2.Cl`, the IC50 [1] is reported as 0.0006 µM, the IC50 [2] is reported as 0.0065 µM and the “growth inhibition (GI)” value [3] is reported as “Non-Toxic”. For the same compound, the “growth inhibition (GI)” value [4] was “Non-Toxic”, the Activity [5] was “inactive” and the inhibition [6] was “Active”. For the same compound, the Survival [7] was less than 0.5%, the Survival [8] was less than 0.5% and the Activity [9] was 89.01%. For the same compound, the Activity [10] was 99%, the Activity [11] was 99% and the Activity [12] was “Active”. The Activity [13] was greater than 90%, the Activity [14] was “<=0.75 log10CFU” and the Activity [15] was “<=0.75 log10CFU”. The half-life at 2 µM [16] was 7.9 min, the CC50 at 72 h [17] was 50.3 µM and the CC50 at 72 h [18] was 67.8 µM. The Activity [19] was “Active”, the Activity [20] was “Active” and the Activity [21] was 99%.
